Assay results from patent US20250108038A1 (priority 2023, published 2025).
“And” between values parts separate entries of the source, which are not always exact repeats. Equal entries are not always repeated.

Assay: Pharmacokinetics after single oral administration to beagle dogs;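 on AUC0-inf of Compound A (as titled): compound A is measured in plasma as a metabolite of the dosed analog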;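 on AUC0-last of Compound A (as titled): compound A is measured in plasma as a metabolite of the dosed analog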;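 on Tlast of Compound A (as titled): compound A is measured in plasma as a metabolite of the dosed analog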;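 on Tmax of Compound A (as titled): compound A is measured in plasma as a metabolite of the dosed analog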
Assay type: in vivo
Conditions: for Cmax of the analog (Compound I-17/I-19) / T1/2 of the analog (Compound I-17/I-19) / Tmax of the analog (Compound I-17/I-19): oral 10 mg/kg; for plasma concentration of Compound I-17/I-19: single PO 10 mg/kg, 0.500 h
Experimental: The concentrations of the analytes in the plasma were quantified by liquid chromatography tandem mass spectrometry (LC-MS/MS).
The bioanalytical assay provided a lower limit of quantification (LLOQ) of 1.0 ng/mL and an upper limit of quantification (ULOQ) of 3000 ng/mL for all the analytes. The data of plasma concentration vs. time were analyzed using Phoenix WinNonlin 8.3 to determine the PK properties of the analytes.
The test articles were administered orally by gavage. The nominal dose volume was 5 mL/kg for both analogs.
The observation included appearance, behavior, morbidity and mortality.
Approximately 0.5 mL blood was collected at each scheduled time point from the peripheral veins.
The plasma samples were placed in microcentrifuge tubes and stored at −70+10° C. until analysis.

[1] = after single PO 10 mg/kg of Compound I-17/I-19, female individual
[2] = after single PO 10 mg/kg of Compound I-17/I-19, female individual, 10 mg/kg
[3] = after single PO 10 mg/kg of Compound I-17/I-19, female mean
[4] = after single PO 10 mg/kg of Compound I-17/I-19, male individual
[5] = after single PO 10 mg/kg of Compound I-17/I-19, male individual, 10 mg/kg
[6] = after single PO 10 mg/kg of Compound I-17/I-19, male mean
[7] = after single PO 80 mg/kg (so in the source) of Compound I-17/I-19, female individual, 80 mg/kg
[8] = after single PO 80 mg/kg (so in the source) of Compound I-17/I-19, female mean
[9] = after single PO 80 mg/kg (so in the source) of Compound I-17/I-19, male individual
[10] = after single PO 80 mg/kg (so in the source) of Compound I-17/I-19, male individual, 80 mg/kg
[11] = after single PO 80 mg/kg (so in the source) of Compound I-17/I-19, male mean

## Clc1ccc(C2(OCC3OCCO3)c3ccccc3C3=NCCN32)cc1 (centres unmarked) [Compound I-19]
[1]
  Tlast of Compound A (as titled): 8.00 h
  Tmax of Compound A (as titled): 1.00 h
[2]
  AUC0-inf of Compound A (as titled): 786 ng·h/mL and 1047 ng·h/mL
  AUC0-last of Compound A (as titled): 739 ng·h/mL and 932 ng·h/mL
  Cmax of Compound A (as titled): 258 ng/mL and 262 ng/mL
  MRT0-inf of Compound A (as titled): 2.82 h and 3.68 h
  MRT0-last of Compound A (as titled): 2.29 h and 2.65 h
  T1/2 of Compound A (as titled): 2.23 h and 2.77 h
[3]
  AUC0-inf of Compound A (as titled): 916 ng·h/mL
  AUC0-last of Compound A (as titled): 836 ng·h/mL
  Cmax of Compound A (as titled): 260 ng/mL
  MRT0-inf of Compound A (as titled): 3.25 h
  MRT0-last of Compound A (as titled): 2.47 h
  T1/2 of Compound A (as titled): 2.50 h
  Tlast of Compound A (as titled): 8.00 h
  Tmax of Compound A (as titled): 1.00 h
[4]
  Tlast of Compound A (as titled): 8.00 h
  Tmax of Compound A (as titled): 1.00 h
[5]
  AUC0-inf of Compound A (as titled): 843 ng·h/mL and 756 ng·h/mL
  AUC0-last of Compound A (as titled): 801 ng·h/mL and 737 ng·h/mL
  Cmax of Compound A (as titled): 312 ng/mL and 281 ng/mL
  MRT0-inf of Compound A (as titled): 2.72 h and 2.50 h
  MRT0-last of Compound A (as titled): 2.29 h and 2.31 h
  T1/2 of Compound A (as titled): 1.93 h and 1.39 h
[6]
  AUC0-inf of Compound A (as titled): 799 ng·h/mL
  AUC0-last of Compound A (as titled): 769 ng·h/mL
  Cmax of Compound A (as titled): 297 ng/mL
  MRT0-inf of Compound A (as titled): 2.61 h
  MRT0-last of Compound A (as titled): 2.30 h
  T1/2 of Compound A (as titled): 1.66 h
  Tlast of Compound A (as titled): 8.00 h
  Tmax of Compound A (as titled): 1.00 h
After single PO 80 mg/kg (so in the source) of Compound I-17/I-19, female individual
  Tlast of Compound A: 24.0 h
[7]
  AUC0-inf of Compound A: 982 ng·h/mL and 1387 ng·h/mL
  AUC0-last of Compound A: 919 ng·h/mL and 1108 ng·h/mL
  Cmax of Compound A: 160 ng/mL and 113 ng/mL
  MRT0-inf of Compound A: 7.98 h and 14.9 h
  MRT0-last of Compound A: 6.23 h and 8.76 h
  T1/2 of Compound A: 6.54 h and 10.7 h
  Tmax of Compound A: 0.500 h and 2.00 h
[8]
  AUC0-inf of Compound A: 1185 ng·h/mL
  AUC0-last of Compound A: 1013 ng·h/mL
  Cmax of Compound A: 137 ng/mL
  MRT0-inf of Compound A: 11.5 h
  MRT0-last of Compound A: 7.49 h
  T1/2 of Compound A: 8.61 h
  Tlast of Compound A: 24.0 h
  Tmax of Compound A: 1.25 h
[9]
  Tlast of Compound A: 24.0 h
  Tmax of Compound A: 1.00 h
[10]
  AUC0-inf of Compound A: 1022 ng·h/mL and 661 ng·h/mL
  AUC0-last of Compound A: 958 ng·h/mL and 622 ng·h/mL
  Cmax of Compound A: 136 ng/mL and 111 ng/mL
  MRT0-inf of Compound A: 8.63 h and 7.66 h
  MRT0-last of Compound A: 7.01 h and 6.08 h
  T1/2 of Compound A: 6.05 h and 6.28 h
[11]
  AUC0-inf of Compound A: 841 ng·h/mL
  AUC0-last of Compound A: 790 ng·h/mL
  Cmax of Compound A: 123 ng/mL
  MRT0-inf of Compound A: 8.14 h
  MRT0-last of Compound A: 6.54 h
  T1/2 of Compound A: 6.16 h
  Tlast of Compound A: 24.0 h
  Tmax of Compound A: 1.00 h
Male and female dogs, PO
  Cmax and AUC0-last of Compound A, compared to Compound I-17: about 2.5 ×
Female dogs
  Cmax of the analog (Compound I-17/I-19): 260 ng/mL
  T1/2 of the analog (Compound I-17/I-19): 2.50 hours
  Tmax of the analog (Compound I-17/I-19): 1 hour
Male dogs
  Cmax of the analog (Compound I-17/I-19): 297 ng/mL
  T1/2 of the analog (Compound I-17/I-19): 1.66 hours
  Tmax of the analog (Compound I-17/I-19): 1 hour
Female individual, 10 mg/kg
  plasma concentration of Compound I-17/I-19: 257 ng/mL and 246 ng/mL
Female mean
  plasma concentration of Compound I-17/I-19: 252 ng/mL
Male individual, 10 mg/kg
  plasma concentration of Compound I-17/I-19: 259 ng/mL and 195 ng/mL
